Patent US11912693B2, “Compounds for modulating S1P1 activity and methods of using the same” (TREVENA, INC., priority 2017, dated 2024)

How the values were obtained:
[1] = system: peripheral blood lymphocytes; experiment: Peripheral blood lymphocytes (lymphopenia) in c57bl/6 mice, acute and chronic studies; format: in vivo; conditions: for Lymphopenia: Effect and Doses, mg/kg, sc: peripheral blood lymphocytes vs vehicle; for Lymphopenia: Effect and Doses, mg/kg, sc (change in peripheral blood lymphocytes): significance vs vehicle given
Experimental: Compounds were tested for changes in peripheral blood lymphocytes in c57bl/6 mice. In acute studies, animals (n=5/group) were dosed subcutaneously with test compound at a dose of 3 mg/kg. Animals were sacrificed at specific time points and 500 μl of whole blood was collected in EDTA (K2) Eppendorf tubes. Blood was stored on ice and shipped immediately overnight delivery to Charles River Laboratories for analysis. CRL ran samples through their WBC/differential panel on an Advia 120 instrument. We received peripheral lymphocyte counts (10^3 cells/μl) for each blood sample. Treatment group means were compared to a vehicle treatment group for statistical significance. In chronic studies, animals (n=6-8/group) were dosed subcutaneously with test compound either in a dose response paradigm (highest dose of 3 mg/kg) or in a screening paradigm at 6 mg/kg for seven days. On the seventh day, animals were sacrificed 45 minutes after the final dose. Whole blood was collected and analyzed as described for acute studies. […]

[2] = system: paclitaxel induced peripheral neuropathy; experiment: Reversal of allodynia induced by paclitaxel in mice (s.c. or p.o., von Frey frequency method); format: in vivo, c57bl/6 mice; conditions: Mus musculus; for inhibition in vivo at 1 mg/kg: sc, 0.5 h, 1 mg/kg s.c., tested 30 min after dosing, read-out: Screen @ 1 mg/kg sc (% MPE); for inhibition in vivo at 3 mg/kg: po, 1 h, 3 mg/kg p.o., tested 60 min after dosing, read-out: Screen @ 3 mg/kg po (% MPE)
In short: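 Neuropathy was induced in mice by paclitaxel (6 mg/kg i.p., days 1, 3, 5, 7) or oxaliplatin (4 mg/kg i.p., days 1-5), with re-testing about 14 days later. Compounds were given s.c. (tested at 30 min) or p.o. (tested at 60 min; paclitaxel only). A 0.4 g von Frey filament was applied ten times per paw, and % non-response was converted to % MPE.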

[3] = molecular target: T1, human sphingosine-1-phosphate receptor 1 (S1P1) (Homo sapiens (Human), UniProt P21453); experiment: Inhibition of cAMP production (HTRF cAMP HiRange), S1P1 CHO-K1 cells; format: cell-based; conditions: for Emax: CHO-K1, efficacy (SPAN) normalized to fingolimod, read-out: hS1P1 cAMP SPAN; for hS1P1 cAMP pEC50: inhibition of cAMP production, S1P1 CHO-K1 cells
In short: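 CHO-K1 cells stably co-expressing human S1P1 (C-terminal Prolink tag) and EA-β-arrestin2 were grown in AssayComplete Media 6 at 37° C. and 5% CO2, plated, and incubated overnight. Agonist-driven inhibition of intracellular cAMP was read by TR-FRET with the HTRF cAMP HiRange kit on a PheraStar reader. Potency is pEC50, and efficacy (SPAN) is normalized to fingolimod.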
Target sequence in this assay (P21453 whole entry, looked up): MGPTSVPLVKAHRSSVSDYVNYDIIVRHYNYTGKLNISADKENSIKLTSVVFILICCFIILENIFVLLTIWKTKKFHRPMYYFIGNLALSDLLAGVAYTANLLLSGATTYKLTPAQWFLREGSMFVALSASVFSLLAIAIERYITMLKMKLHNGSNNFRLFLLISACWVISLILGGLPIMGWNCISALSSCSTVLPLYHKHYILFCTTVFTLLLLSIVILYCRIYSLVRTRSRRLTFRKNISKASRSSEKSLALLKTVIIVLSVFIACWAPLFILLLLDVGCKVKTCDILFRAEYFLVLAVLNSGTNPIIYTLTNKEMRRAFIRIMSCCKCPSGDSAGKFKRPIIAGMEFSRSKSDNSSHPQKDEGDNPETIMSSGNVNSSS

[4] = molecular target: T1, human sphingosine-1-phosphate receptor 1 (S1P1); experiment: β-Arrestin2 recruitment assay (PathHunter), S1P1 CHO-K1 cells; format: cell-based; conditions: for Emax: CHO-K1, efficacy (SPAN) normalized to fingolimod, read-out: hS1P1 B-arrestin2 SPAN; for hS1P1 B-arrestin2 pEC50: β-arrestin2 recruitment, S1P1 CHO-K1 cells
In short: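 Enzyme-fragment complementation read-out: agonist-driven β-arrestin2 binding to ProLink-tagged human S1P1 in stable CHO-K1 cells restores β-galactosidase, measured 1 h at room temperature after a 60 min 37° C. compound incubation. Potency as pEC50, efficacy relative to fingolimod (SPAN).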
Target sequence in this assay (P21453 whole entry, looked up): as above
Target sequence in this assay (P32121 whole entry partner, looked up): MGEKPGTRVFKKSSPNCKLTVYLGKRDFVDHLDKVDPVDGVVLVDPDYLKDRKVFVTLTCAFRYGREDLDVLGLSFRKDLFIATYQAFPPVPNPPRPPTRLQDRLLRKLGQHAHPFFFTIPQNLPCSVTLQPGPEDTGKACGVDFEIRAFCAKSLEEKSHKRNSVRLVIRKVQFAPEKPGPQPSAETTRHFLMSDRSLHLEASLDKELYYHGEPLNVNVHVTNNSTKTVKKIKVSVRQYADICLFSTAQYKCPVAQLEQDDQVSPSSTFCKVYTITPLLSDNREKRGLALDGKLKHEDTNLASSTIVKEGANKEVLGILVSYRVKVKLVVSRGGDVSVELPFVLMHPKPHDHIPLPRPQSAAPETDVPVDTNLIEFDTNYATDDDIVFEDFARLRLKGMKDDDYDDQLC

[5] = molecular target: human sphingosine-1-phosphate receptor 3 (S1P3) (Homo sapiens (Human), UniProt Q99500); experiment: Inhibition of cAMP production (HTRF), S1P3 CHO-K1 cells; format: cell-based; conditions: for hS1P3 cAMP pEC50: inhibition of cAMP production
human sphingosine-1-phosphate receptor 3 (S1P3), sequence (Q99500 whole entry): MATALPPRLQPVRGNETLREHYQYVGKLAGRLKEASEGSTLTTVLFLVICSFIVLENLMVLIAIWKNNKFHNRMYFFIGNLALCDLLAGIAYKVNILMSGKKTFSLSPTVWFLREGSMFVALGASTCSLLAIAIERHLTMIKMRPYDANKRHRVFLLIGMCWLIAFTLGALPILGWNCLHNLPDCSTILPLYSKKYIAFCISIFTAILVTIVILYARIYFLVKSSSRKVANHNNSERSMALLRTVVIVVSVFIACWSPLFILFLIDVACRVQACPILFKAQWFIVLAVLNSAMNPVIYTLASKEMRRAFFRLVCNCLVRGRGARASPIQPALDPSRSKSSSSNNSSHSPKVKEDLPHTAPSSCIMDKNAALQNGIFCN
Experimental: (§1) Stable clonal Chinese hamster ovary K1 (CHO-K1) cells co-expressing EA-β-arrestin2 and the human sphingosine-1-phosphate receptor 2 (NM_004230.3, S1P2), human sphingosine-1-phosphate receptor 3 (NM_005226, S1P3) and sphingosine-1-phosphate receptor 5 (NM_001166215.1, S1P5) with a C-terminal Prolink™ tag were purchased from DiscoverX corporation (S1P2: Cat #93-0256C2, S1P3: Cat #93-0217C2, S1P5: Cat #93-0583C2).
(§2) Cell lines were cultured in AssayComplete™ Media 6 (DiscoverX Corporation, Cat #: 920018GF2) at 37° C. and 5% CO2 in a humidified CO2 and temperature-controlled incubator. To begin assay plating, cells were washed with dulbecco's phosphate buffered saline (CellGro, Cat #: 21-031-CV) and lifted from the culturing flask by incubation (37° C., 5 min) with CellStripper (Cellgro, Cat #: 25-056-CI). […] Plated cells were incubated overnight at 37° C. and 5% CO2 in a humidified CO2 and temperature-controlled incubator.
(§3) S1P3 and S1P5 Agonist-promoted G-protein responses were determined by measuring changes in intracellular cAMP using the HTRF® cAMP HiRange kit (CisBio, Cat #: 62AM6PEJ) based on time-resolved fluorescence resonance energy transfer (TR-FRET) technology. […] Following a 30-minute room temperature incubation the components of the cAMP HiRange kit were added as per the manufacturer's instructions. After an hour incubation at room temperature, plates were analyzed by a BMG PheraStar microplate reader.
(§4) The tables below include the efficacy of the compound as compared to a positive control, referred to as “SPAN”. These values are normalized to fingolimod, a known agonist of the sphingosine-1-phosphate 3 and 5 receptor or CYM5520, a known agonist of the sphingosine-1-phosphate 2 receptor. The tables also include potency values (pEC50) for modulating discrete receptor-mediated activities (inhibition of cAMP production or inositol monophosphate accumulation).

[6] = molecular target: human sphingosine-1-phosphate receptor 2 (S1P2) (Homo sapiens (Human), UniProt O95136); experiment: Inositol monophosphate production (IP-one TB kit), S1P2 CHO-K1 cells; format: cell-based; conditions: for hS1P2 IP-one pEC50: inositol monophosphate accumulation
human sphingosine-1-phosphate receptor 2 (S1P2), sequence (O95136 whole entry): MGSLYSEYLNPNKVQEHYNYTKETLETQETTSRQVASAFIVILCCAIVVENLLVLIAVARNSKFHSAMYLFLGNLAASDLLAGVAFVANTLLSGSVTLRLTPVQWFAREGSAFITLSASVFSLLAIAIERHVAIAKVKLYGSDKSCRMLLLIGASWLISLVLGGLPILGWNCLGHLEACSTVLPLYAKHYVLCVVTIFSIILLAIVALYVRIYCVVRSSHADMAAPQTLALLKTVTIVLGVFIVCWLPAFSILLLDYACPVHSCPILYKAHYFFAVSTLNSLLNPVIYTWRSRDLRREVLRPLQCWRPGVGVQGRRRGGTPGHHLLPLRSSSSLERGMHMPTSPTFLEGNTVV
Experimental: as §1, §2
S1P2 Agonist-promoted G-protein responses were determined by measuring changes in intracellular inositol monophosphate using the IP-one TB kit (CisBio, Cat #: 62IPAPEJ) based on time-resolved fluorescence resonance energy transfer (TR-FRET) technology. AssayComplete™ Cell Plating 2 Reagent was removed and replaced with 1× IP-one stimulation buffer (as per manufacturer's instructions) along with test or control compounds at the desired concentrations. Following a 60-minute incubation at 37° C. and 5% CO2 in a humidified CO2 and temperature-controlled incubator, the components of the IP-one TB kit were added as per the manufacturer's instructions. After an hour incubation at room temperature, plates were analyzed by a BMG PheraStar microplate reader.
as §4

[7] = molecular target: sphingosine-1-phosphate receptor 5 (S1P5) (Homo sapiens (Human), UniProt Q9H228); experiment: Inhibition of cAMP production (HTRF), S1P5 CHO-K1 cells; format: cell-based; conditions: for hS1P5 cAMP pEC50: inhibition of cAMP production
sphingosine-1-phosphate receptor 5 (S1P5), sequence (Q9H228 whole entry): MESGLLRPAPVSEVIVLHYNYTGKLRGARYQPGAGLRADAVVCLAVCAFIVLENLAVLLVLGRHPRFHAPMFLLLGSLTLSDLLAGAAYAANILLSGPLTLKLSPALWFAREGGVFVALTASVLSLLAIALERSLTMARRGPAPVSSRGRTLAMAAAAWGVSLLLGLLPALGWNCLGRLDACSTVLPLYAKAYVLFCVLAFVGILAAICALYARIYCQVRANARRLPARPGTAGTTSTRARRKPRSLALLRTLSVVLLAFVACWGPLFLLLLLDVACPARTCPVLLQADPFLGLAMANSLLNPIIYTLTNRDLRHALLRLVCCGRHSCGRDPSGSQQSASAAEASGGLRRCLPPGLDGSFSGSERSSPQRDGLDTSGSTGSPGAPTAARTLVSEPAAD
Experimental: as §1, §2, §3, §4

SMILES | Lymphopenia: Effect and Doses, mg/kg, sc ([1]; 6 mg/kg sc, 7 days) | inhibition in vivo at 1 mg/kg [2] [%] | hS1P1 cAMP pEC50 [3] | hS1P1 B-arrestin2 pEC50 [4] | further results
Cc1cnccc1-c1nc(-c2ccc3c(c2)nnn3C(C)C)no1 [Compound 8, 3-(1-isopropyl-1H-benzo[d][1,2,3]triazol-5-yl)-5-(3-methylpyridin-4-yl)-1,2,4-oxadiazole] | no change: 6 mg/kg, 7 days | < 50 | <6.5 | <5 | Emax [3]: < 75%; Emax [4]: < 75%
COc1cccc(-c2noc(-c3ccc4c(c3)nnn4C(C)C)n2)n1 [Compound 19, 5-[3-(6-methoxypyridin-2-yl)-1,2,4-oxadiazol-5-yl]-1-(propan-2-yl)-1H-1,2,3-benzotriazole] | no change: 6 mg/kg, 7 days | – | <6.5 | >5 | –
CC(C)Oc1ccc(-c2nc(-c3ccc4c(c3)nnn4C(C)C)no2)cc1C#N [Compound 22, 2-isopropoxy-5-(3-(1-isopropyl-1H-benzo[d][1,2,3]triazol-5-yl)-1,2,4-oxadiazol-5-yl)benzonitrile] | – | – | – | – | Lymphopenia: Effect and Doses, mg/kg, sc ([1]; 3 mg/kg sc, 7 days): no change: 3 mg/kg, 7 days
Cc1ccccc1-c1noc(-c2ccc3c(c2)nnn3C(C)(C)C)n1 [Compound 59, 1-tert-butyl-5-[3-(2-methylphenyl)-1,2,4-oxadiazol-5-yl]-1H-1,2,3-benzotriazole] | no change: 6 mg/kg, 7 days | – | >6.5 | >5 | –
Cc1ccccc1-c1noc(-c2ccc3c(c2)nnn3CC(C)C)n1 [Compound 96, 5-[3-(2-methylphenyl)-1,2,4-oxadiazol-5-yl]-1-(2-methylpropyl)-1H-1,2,3-benzotriazole] | no change: 6 mg/kg, 7 days | > 50 | >6.5 | >5 | Emax [3]: > 75%; Emax [4]: > 75%
Cc1cnc(-c2nc(-c3ccc4c(c3)nnn4C(C)C)no2)cn1 [Compound 234, 3-(1-isopropyl-1H-benzo[d][1,2,3]triazol-5-yl)-5-(5-methylpyrazin-2-yl)-1,2,4-oxadiazole] | no change: 6 mg/kg, 7 days | – | <6.5 | <5 | –
CCC1(CC)CC(=O)c2cc(-c3nc(-c4ccnc(O)c4)no3)ccc2O1 [Compound 263, 2,2-diethyl-6-[3-(2-hydroxy-4-pyridyl)-1,2,4-oxadiazol-5-yl]chroman-4-one] | – | > 50 | >6.5 | >5 | hS1P3 cAMP pEC50 [5]: <5.0; inhibition in vivo at 3 mg/kg [2]: > 50%; hS1P2 IP-one pEC50 [6]: <5.0; hS1P5 cAMP pEC50 [7]: <5.0
C=CCNc1ccc(-c2nc(-c3ccc4sc(N)nc4c3)no2)cc1C#N [Compound 267, 2-(allylamino)-5-(3-(2-aminobenzo[d]thiazol-5-yl)-1,2,4-oxadiazol-5-yl)benzonitrile] | – | > 50 | >6.5 | >5 | hS1P3 cAMP pEC50 [5]: <5.0; hS1P2 IP-one pEC50 [6]: <5.0; hS1P5 cAMP pEC50 [7]: <5.0
COc1ccccc1-c1coc(-c2ccc3c(c2)nnn3C(C)C)n1 [Compound 277, 5-[4-(2-methoxyphenyl)-1,3-oxazol-2-yl]-1-(propan-2-yl)-1H-1,2,3-benzotriazole] | – | > 50 | >6.5 | >5 | Emax ([5]; CHO-K1, efficacy normalized to fingolimod, read-out: hS1P3 cAMP SPAN): < 50%; hS1P3 cAMP pEC50 [5]: <5.0; Emax ([6]; CHO-K1, efficacy normalized to CYM5520, read-out: hS1P2 IP-one SPAN): > 50%; hS1P2 IP-one pEC50 [6]: <5.0; Emax [3]: > 75%; Emax [4]: > 75%; Emax ([7]; CHO-K1, efficacy normalized to fingolimod, read-out: hS1P5 cAMP SPAN): < 50%; hS1P5 cAMP pEC50 [7]: <5.0
CC(F)(F)CNc1ccc(-c2nnc(-c3ccc4[nH]ncc4c3)o2)cc1C#N [Compound 355, 2-[(2,2-difluoropropyl)amino]-5-[5-(1H-indazol-5-yl)-1,3,4-oxadiazol-2-yl]benzonitrile] | no change: 6 mg/kg, 7 days | – | >6.5 | >5 | inhibition in vivo at 3 mg/kg [2]: > 50%
CC(C)Nc1ccc(-c2nnc(-c3ccc4[nH]cnc4c3)o2)cc1C#N [Compound 356, 5-[5-(1H-1,3-benzodiazol-5-yl)-1,3,4-oxadiazol-2-yl]-2-[(propan-2-yl)amino]benzonitrile] | no change: 6 mg/kg, 7 days | – | >6.5 | >5 | inhibition in vivo at 3 mg/kg [2]: > 50%; Emax [3]: > 75%; Emax [4]: > 75%
CN1C(=O)CCc2cc(-c3nc(-c4cccnc4)no3)ccc21 [Compound 384, 1-methyl-6-[3-(pyridin-3-yl)-1,2,4-oxadiazol-5-yl]-1,2,3,4-tetrahydroquinolin-2-one] | – | – | <6.5 | <5 | Lymphopenia: Effect and Doses, mg/kg, sc ([1]; acute, 3 mg/kg sc, 45 min and 2 hr): no change: 3 mg/kg; 45 min and 2 hr
COc1cc(NC(C)=O)ccc1-c1noc(-c2ccc(NC(C)C)c(C#N)c2)n1 [Compound 731, N-[4-(5-{3-cyano-4-[(propan-2-yl)amino]phenyl}-1,2,4-oxadiazol-3-yl)-3-methoxyphenyl]acetamide] | – | – | – | – | Lymphopenia: Effect and Doses, mg/kg, sc (change in peripheral blood lymphocytes) ([1]; 6 mg/kg sc, 7 days): −78% stat sig: 6 mg/kg, 7 days; inhibition in vivo at 3 mg/kg [2]: > 50%
CC(C)Nc1ccc(-c2ncc(-c3cccnc3)cn2)cc1C#N [Compound 737, 2-(isopropylamino)-5-(5-(pyridin-3-yl)pyrimidin-2-yl)benzonitrile] | – | – | – | – | Lymphopenia: Effect and Doses, mg/kg, sc (change in peripheral blood lymphocytes) ([1]; 6 mg/kg sc, 7 days): −40% not stat sig: 6 mg/kg, 7 days
